We go through three molecules from publication PMC12063173, “Metabolic Profiling of a Mediterranean-Inspired (Poly)phenol-Rich Mixture in the Brain: Perfusion Effect and In Vitro Blood–Brain Barrier Transport Validation” (Journal of Agricultural and Food Chemistry, 2025).

A short description of one series: in vivo. The following applies: male, Sprague-Dawley, rat, po.
The nature of series [1]: Targeted metabolomics (UPLC-ESI-QTOF) identification of metabolites in plasma, PB and NPB. The following applies: P plasma, PB perfused brain, NPB nonperfused brain; 1-24 h after oral capsule.
Method: (§2) Adult male Sprague–Dawley rats weighing 250–300 g were purchased from the Animal Experimentation Service of the University of Murcia (Murcia, Spain). […] Based on the experimental design shown in Figure 1, one capsule was administered by gavage to each fasting animal. A total of 40 animals were used in the study. Thirty animals received a capsule containing a mixture of different Mediterranean food extracts, while ten animals received a capsule with microcrystalline cellulose and served as the control group. […] To minimize animal use in accordance with the 3Rs principle, two control animals were sacrificed at each time point (one PB and one NPB). These controls served to identify potential endogenous compounds or background signals not related to the extract administration. All animals were fasted overnight prior to gavage and euthanized with carbon dioxide.
(§3) Plasma samples were extracted with ACN:formic acid (98:2, v/v), centrifuged and evaporated in a speed vacuum concentrator (Savant SPD14 0DDA). The evaporated samples were resuspended in 100 μL MeOH and filtered through 0.22 μm regenerated cellulose filters (Minisart Sartorius, Madrid, Spain). Next, half of the animals at each time point were perfused with ice-cold phosphate-buffered saline, and the blood-free brain was dissected out immediately and stored at – 80 °C until analysis, as previously reported.[37],[48]
(§4) Approximately 400 mg of brain tissue (perfused or nonperfused) was weighed and extensively washed with cold PBS to avoid external blood contamination. After weighting, the samples were placed in 2 mL screw cap tubes. […] The evaporated samples were resuspended in 100 μL MeOH and filtered through 0.22 μm regenerated cellulose filters.
(§5) We performed a targeted metabolomic analysis using an ultrahigh-performance liquid chromatographic system (UPLC) coupled to a quadrupole-time-of-flight (QTOF) mass spectrometer. The phenolic compounds were separated using an Agilent Poroshell 120 column (100 mm × 3 mm, 2.7 μm) and a 5 μL injection volume. […] The flow rate was set constant at 0.4 mL/min. The spectra were acquired in the m/z range from 100 to 1100, in negative polarity mode and an acquisition rate of 1.5 spectra per second. Quantitative data were processed using the Mass HunterQualitative Analysis software (version B.08.00, Agilent). A target screening strategy was applied for the qualitative analysis of possible metabolites derived from the consumption of the Mediterranean blend. […] These compounds encompass derived metabolites conjugated (glucuronides, sulfates, and sulfoglucuronides, among others). The exact mass of the proposed compound was extracted using an extraction window of 0.01 m/z. Metabolite quantification was performed by integrating the peak areas of their extracted ion chromatograms (EICs). Compounds with available standards were quantified using calibration curves derived from the respective standards, while other metabolites were semiquantified based on their peak area values.
For series [2] the following is noted: rat, in vivo.
Method: as §2, §3, §4, §5
Series [3] in a line: Perfused brain (PB) kinetics of phenolic metabolites after oral capsule. In kind it is in vivo, Sprague–Dawley rats. On the set-up: AUC0-t PB: concentration or dose not given beside the values. The following applies: perfused brain, oral capsule, 0-24 h, n = 3 per time point. From the text: (§1) Statistical analyses were applied depending on the experimental context.
Details of series [4]: method as in doi:10.1016/j.jff.2015.09.019. The following applies: human, even upon high free ellagic acid intake; cited from earlier work.
A short description of series [5]: Plasma pharmacokinetics of phenolic metabolites after oral capsule of (poly)phenol-rich Mediterranean extract mixture.
Method: (§6) Adult male Sprague–Dawley rats weighing 250–300 g were purchased from the Animal Experimentation Service of the University of Murcia (Murcia, Spain). […] Animals were maintained in a temperature-controlled environment with a 12 h light-dark cycle. […] Based on the experimental design shown in Figure 1, one capsule was administered by gavage to each fasting animal. A total of 40 animals were used in the study. Thirty animals received a capsule containing a mixture of different Mediterranean food extracts, while ten animals received a capsule with microcrystalline cellulose and served as the control group. At each time point (1, 3, 6, 8, and 24 h postadministration), six animals from the extract group were sacrificed, three with transcardial perfusion using saline (PB) and three without perfusion (NPB), to assess the distribution of extract-derived metabolites in plasma and brain. To minimize animal use in accordance with the 3Rs principle, two control animals were sacrificed at each time point (one PB and one NPB). […] All animals were fasted overnight prior to gavage and euthanized with carbon dioxide.
(§7) Blood samples collected by cardiac puncture in sodium heparin tubes at each time point after sacrifice were immediately centrifuged at 14,000 × g for 15 min at 4 °C, and the plasma was stored at −80 °C until their analysis. Plasma samples were extracted with ACN:formic acid (98:2, v/v), centrifuged and evaporated in a speed vacuum concentrator (Savant SPD14 0DDA). The evaporated samples were resuspended in 100 μL MeOH and filtered through 0.22 μm regenerated cellulose filters (Minisart Sartorius, Madrid, Spain).
(§8) We performed a targeted metabolomic analysis using an ultrahigh-performance liquid chromatographic system (UPLC) coupled to a quadrupole-time-of-flight (QTOF) mass spectrometer. The phenolic compounds were separated using an Agilent Poroshell 120 column (100 mm × 3 mm, 2.7 μm) and a 5 μL injection volume. The mobile phases used were 0.1% formic acid in water (A) and 0.1% formic acid in ACN (B), and the gradient was: 0–3 min, 5–15% B; 3–11 min, 15–30% B; 11–14 min, 30–50% B, 14–16 min, 50–90% B. Finally, the B content was decreased to the initial conditions (5%) in 1 min, and the column re-equilibrated for 4 min. The flow rate was set constant at 0.4 mL/min. The spectra were acquired in the m/z range from 100 to 1100, in negative polarity mode and an acquisition rate of 1.5 spectra per second.
A short description of series [6]: Nonperfused brain (NPB) kinetics of phenolic metabolites after oral capsule. In kind it is in vivo, Sprague–Dawley rats. Further details: AUC0-t NPB: concentration or dose not given beside the values.
From the text: as §1

Series [7] concerns human brain microvascular endothelial cells (HBMECs). As to the kind of experiment: In vitro blood–brain barrier transport (Transwell). It counts as in vitro ADME. The following applies: HBMEC, mixtures at 2.5 μM final, 2 h. Here is the method:
The BBB transport model was established using human brain microvascular endothelial cells (HBMECs), following a methodology previously described.[49] Cells were maintained at 37 °C in a humidified environment with 5% CO2. HBMECs were seeded on 12-well Transwell inserts (12 mm, 0.4 μm pore polyester membrane; Corning, Madrid, Spain) and cultured for 6 days to form confluent monolayers suitable for transport studies. Transport assays were carried out in Hanks’ Balanced Salt Solution (HBSS) supplemented with 0.1% fetal bovine serum (FBS, v/v). The cells were exposed on the apical side to individual phenolic metabolites detected in the brain from the animal study, a representative mixture containing equal concentrations of these metabolites, or a physiological mixture reproducing their relative percentages as observed in the brain. All treatments were applied at a final concentration of 2.5 μM for 2 h (Supporting Information, Table S3). The integrity of the cell monolayers was confirmed by measuring transendothelial electrical resistance (TEER) at the start of the experiment (0 h) and after the last time point (2 h) using an EVOM2 Epithelial Volt Ohm Meter (World Precision Instruments, Inc., USA).
Samples from the apical and basolateral compartments were stored at −80 °C for further analysis. Transport of the compounds was evaluated using UPLC-qTOF as described elsewhere,[38] and transendothelial permeability expressed as a percentage of the ratio between the concentration in the basolateral compartment relative to the total concentration in both compartments.
Finally, one-way ANOVA with Tukey’s multiple comparisons test was exclusively applied to in vitro BBB transport experiments. The three tested conditions for each compound (individual compound, a mixture containing equal concentrations of these compounds, or a physiological mixture reproducing their relative percentages as observed in the brain were evaluated. Plots were performed using GraphPad 9.0 (GraphPad Software, Boston, Massachusetts, USA). Statistical significance was set at P < 0.05.
Figure 3 Transport efficiency of phenolic metabolites across the BBB. Human brain microvascular endothelial cells (HBMEC) were seeded onto semipermeable membranes. […] Detailed composition of both mixtures is given in the Supporting Information, Table S3. Media from the upper and lower compartments were collected, and endothelial transport was evaluated by UPLC-qTOF-MS. The transport percentage (%) was determined by the concentration ratio in the lower compartment to the total concentration (upper and lower compartments). All values are presented as mean ± SD from three independent experiments.

[8] abbreviates: male, Sprague-Dawley, rat, po, 22 mg extract blend per capsule, one capsule per animal.
[9] abbreviates: nonperfused brain, oral capsule, 0-24 h, n = 3 per time point.
Setting [10] is: oral capsule, 0-24 h, n = 6 per time point.

The AUC(0-t) is the area under the concentration-time curve up to a stated or last time point. For orientation: Cmax means the maximum level reached in the sampled fluid or tissue. Broadly, the Tmax is the time at which the peak concentration occurs.

Method for in vivo: as §6, §7, §8

As for `O=S(=O)(O)Oc1ccc(C=Cc2cc(O)cc(O)c2)cc1` [resveratrol 4’-O-sulfate], in the series “in vivo”, the AUC(0-t) is 0.026 ± 0.027 µM·h, the Cmax is 2.9 ± 2.8 nM, the MRT last is 10.7 h and the time to peak (Tmax) is 7.3 ± 1.2 h. The half-life in “in vivo” was 5.6 h. Further, the occurrence result in series [1] was “restricted to plasma”. Also, the “concentration–time profile in brain (Figure 2)” value in series [2] is “Not detected”.

Take `O=c1oc2c(O)c(O)cc3c(=O)oc4c(O)c(O)cc1c4c23` [ellagic acid]: in series [1], the occurrence result is “PB, NPB, P”. Moreover, the Tmax in series [3] (male, Sprague-Dawley, rat, 22 mg extract blend per capsule, one capsule per animal) stood at 16 ± 11 h. Besides, in series [3], the “AUC0-t PB” value came out at 1.5 ± 1.1 pmol·h/g and the “Cmax PB” value turned out to be 0.1 ± 0.08 pmol/g tissue. In series [4], the “free ellagic acid concentration in plasma” value is listed as at most 100 nM. Besides, in series [5] (setting [8]), the AUC(0-t) is 0.0141 ± 0.0074 µM·h, the Cmax came out at 1.1 ± 0.8 nM, the MRT last was 103 h and the Tmax was determined as 10 ± 12 h. For the same molecule, in series [6] (NPB versus PB), the “concentration in NPB relative to PB” value was found to be 9 fold. In addition, the Tmax in series [6] (male, Sprague-Dawley, rat, 22 mg extract blend per capsule, one capsule per animal, nonperfused brain, oral capsule, 0-24 h, n = 3 per time point) stood at 15 ± 13 h. Also, in series [6] (male, Sprague-Dawley, rat, 22 mg extract blend per capsule, one capsule per animal, nonperfused brain, oral capsule, 0-24 h, n = 3 per time point, read-out: MRT0-t NPB), the MRT last is 56.9 h. The half-life in series [6] (male, Sprague-Dawley, rat, 22 mg extract blend per capsule, one capsule per animal, nonperfused brain, oral capsule, 0-24 h, n = 3 per time point, read-out: T1/2 NPB (converted)) is 36.3 h. In addition, in series [6] (setting [9]), the “AUC0-t NPB” value is 7.1 ± 7.5 pmol·h/g and the “Cmax NPB” value is 0.9 ± 0.9 pmol/g tissue. For the same molecule, in series [7], the “transport efficiency in MIXperc compared with MIXeq” value is listed as “significantly higher transport efficiencies”.

For the molecule `O=C(O)[C@H]1O[C@@H](Oc2cc(O)cc(CCc3ccc(O)cc3)c2)[C@H](O)[C@@H](O)[C@@H]1O` [dihydroresveratrol 3-O-glucuronide], the occurrence result in series [1] is “PB, NPB, P”. In series [3], the “AUC0-t PB” value is 1.3 ± 0.7 pmol·h/g, the “Cmax PB” value is reported as 0.4 ± 0.1 pmol/g tissue, the “MRT0-t PB” value was found to be 23 ± 26 h and the “T1/2 PB” value was 15 ± 18 h. Moreover, the “Tmax PB” value in series [3] worked out at 3.3 ± 2.1 h. Further, in series [5] (setting [10]), the AUC0-t plasma was determined as 0.993 ± 0.558 µM·h, the MRT0-t plasma is 14 ± 5.8 h, the T1/2 plasma stood at 8.1 ± 3.2 h and the Tmax plasma was 6.2 ± 2.1 h. In addition, in series [5] (read-out: Cmax plasma, oral capsule, 0-24 h, n = 6 per time point), the Cmax is 93 ± 45 nM. Also, in series [6] (setting [9]), the “AUC0-t NPB” value amounted to 5.3 ± 2.8 pmol·h/g, the “Cmax NPB” value was found to be 0.5 ± 0.1 pmol/g tissue, the “MRT0-t NPB” value was 44 ± 1 h and the “T1/2 NPB” value was 27 ± 1 h. The “Tmax NPB” value in series [6] (setting [9]) was 6.7 ± 1.2 h. In addition, the “transport efficiency in MIXperc compared with MIXeq” value in series [7] is listed as “significantly higher transport efficiencies”.
